Laboratory results as given in US20250230154A1, “COMPOUND HAVING SHP2 PROTEIN DEGRADING ACTIVITY, AND MEDICAL USES THEREOF” (UBIX THERAPEUTICS, INC., priority 2021, published 2025).

Target: T1, SHP2 protein (Homo sapiens, UniProt Q06124)
T1 sequence (Q06124 1-593): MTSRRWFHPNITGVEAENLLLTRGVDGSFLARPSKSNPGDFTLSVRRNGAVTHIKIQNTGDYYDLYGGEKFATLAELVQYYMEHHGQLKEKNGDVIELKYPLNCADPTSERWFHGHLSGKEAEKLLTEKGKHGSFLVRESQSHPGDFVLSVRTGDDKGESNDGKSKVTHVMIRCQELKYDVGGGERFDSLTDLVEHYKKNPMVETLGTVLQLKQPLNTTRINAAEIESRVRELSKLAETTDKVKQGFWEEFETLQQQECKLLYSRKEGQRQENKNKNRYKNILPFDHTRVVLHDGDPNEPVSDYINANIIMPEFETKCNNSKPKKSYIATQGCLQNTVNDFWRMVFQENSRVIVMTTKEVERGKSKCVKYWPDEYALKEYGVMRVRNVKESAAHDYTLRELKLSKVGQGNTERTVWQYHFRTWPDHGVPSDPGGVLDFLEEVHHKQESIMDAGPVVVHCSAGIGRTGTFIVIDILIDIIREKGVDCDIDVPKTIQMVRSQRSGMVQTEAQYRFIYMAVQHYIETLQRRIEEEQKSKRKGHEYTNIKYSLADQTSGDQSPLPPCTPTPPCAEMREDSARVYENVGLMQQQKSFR
Assay: Measurement of SHP2 protein degradation in MV-4-11 cells (western blotting)
Assay type: cell-based
Design: endogenous in cells; host or cells: MV-4-11
Settings: MV-4-11 cells, 24 hours
Description: Experimental Example 2: Measurement of SHP2 Protein Degradation in MV-4-11 Cells
MV-4-11 cells were treated with the synthesized Example compound, and the amount of SHP2 protein present in the cells was measured using western blotting detection. The protocol of the experiment conducted using MV-4-11 cells was as follows:
[Culture] MV-4-11 cells resuspended in IMDM MEDIUM (Hyclone, SH30228.01) containing 5% FBS (Hyclone, SV30207.02) and 1% Penicillin-streptomycin (Welgene, LS 202-02) were seeded at a density of 1×10^6/mL/well in a 12-well plate in an amount of 1 ml each.
[Compound treatment] The 12-well plate was treated as follows: Cells were treated with compounds at a final concentration of […] made by serial dilution of 10 mM stock with DMSO in 1/100 increments […]. After 24 hours, cells were harvested. For the negative control group, DMSO diluted 1/100 to the media (3 mL DMSO+297 mL media) was added.
[Harvest] Each well was collected in a 1.5 mL microtube by pipetting with a 1 mL pipette and centrifuged (500 g, 5 min, 4° C.). The supernatant was removed. It was washed with PBS, and then centrifuged again (500 g, 5 min, 4° C.). Thereafter, the supernatant was removed to prepare a pellet.
[Cell Lysis and Sample preparation] Lysis buffer was prepared as follows: […] of RIPA buffer (Biosesang, RC2038-050-00)+0.5 mM PMSF (SIGMA, P7626)+1× Protease/Phosphatase Inhibitor (Cell signaling, 5872S) per well was added and placed on ice for 30 minutes (vortexing at 0 and 30 minutes, respectively). After sonication process (10 seconds pulse, 30 seconds rest, 5 cycles, 70% amplification), centrifugation (15000 g, 15 min, 4° C.) was performed, and then only the supernatant was taken and transferred to a microtube. The sample was diluted ¼ with RIPA buffer in a 96-well plate, and mixed with A:B=50:1 of the BCA Protein Assay Kit (iNtRON, 21071). […] each of the mixture was left at 37° C. for 30 minutes, and cooled for 10 minutes. Then, absorbance was measured at 562 nm with the SYNERGY H1 microplate reader from BioTek. After making a sample by quantifying the protein with the measured value, boiling was performed at 70° C. for 10 minutes. At this time, the sample buffer used was a mixture of NuPAGE or Bolt 4× sample buffer (Invitrogen) and each 10× sample reducing agent according to the gel to be used, and RIPA buffer was used for protein dilution.
[Western blotting detection method] The same amount of sample was loaded on NuPAGE or Bolt Bis-tris 4-12% gradient gel and run (200 V, 35 minutes). It was transferred to 0.2 mm NC membrane with Trans-blot Turbo (BIO-RAD) (1.3 A constant, 25 V limit, 15 minutes). Blocking was performed at room temperature for 1 hour with Skim milk or Intercept Blocking Buffer (LI-COR, 927-60001):0.1% TBST=1:1. Anti-SHPTP2 Mouse (1:500 in 2% BSA/0.2% TBST, size: 70 kDa, Santacruz sc-7384) was incubated overnight at 4° C., and Anti-GAPDH Rabbit (1:2,000 in 2% BSA/0.2% TBST, size: 37 kDa, CST #2118) was incubated at room temperature for 1 hour 30 minutes or 3 hours. It was washed 3 times for 5 minutes each with 0.2% TBST washing buffer. Secondary antibody Anti-Rabbit IgG (1:5,000 in 2% BSA/0.2% TBST, CST), IRDye® 680RD Goat anti-Rabbit IgG Secondary Antibody (1:10,000 in 2% BSA/0.2% TBST, LI-COR 926-68071) were added and incubated for 45 minutes on a rocker at room temperature. It was washed 5 times for 5 minutes each with 0.2% TBST washing buffer and detected with LI-COR's Odyssey. At this time, SHPTP2 was detected using SuperSignal West Pico PLUS Chemiluminescent Substrate, and house-keeping genes were also detected.
In the results of Table 4 below, Compounds 1-7, 13-19, and 21-26 are results in KYSE-520 cells, and the others are results in MV-4-11 cells.

| SMILES | SHP2 degradation (%) 10 nM | SHP2 degradation (%) 100 nM | SHP2 degradation (%) 1000 nM |
| --- | --- | --- | --- |
| Cc1ncsc1-c1ccc(CNC(=O)[C@@H]2C[C@@H](O)CN2C(=O)[C@@H](NC(=O)C2(F)CC2)C(C)(C)C)c(OCCC2CCN(C(=O)CC(=O)Nc3cccc(Sc4ncc(N5CCC(C)(CN)CC5)nc4N)c3Cl)CC2)c1 [Example 37, (2S,4R)—N-(2-(2-(1-(3-((3-((3-amino-5-(4-(aminomethyl)-4-methylpiperidin-1-yl)pyrazin-2-yl)thio)-2-chlorophenyl)amino)-3-oxopropanoyl)piperidin-4-yl)ethoxy)-4-(4-methylthiazol-5-yl)benzyl)-1-((S)-2-(1-fluorocyclopropane-1-carboxamido)-3,3-dimethylbutanoyl)-4-hydroxypyrrolidine-2-carboxamide] | 80.5% | 89.5% | 90.5% |
| Cc1ncsc1-c1ccc(CNC(=O)[C@@H]2C[C@@H](O)CN2C(=O)[C@@H](NC(=O)C2(F)CC2)C(C)(C)C)c(OCCCC2CCN(C(=O)CC(=O)Nc3cccc(Sc4ncc(N5CCC(C)(N)CC5)nc4N)c3Cl)CC2)c1 [Example 40, (2S,4R)—N-(2-(3-(1-(3-((3-((3-amino-5-(4-amino-4-methylpiperidin-1-yl)pyrazin-2-yl)thio)-2-chlorophenyl)amino)-3-oxopropanoyl)piperidin-4-yl)propoxy)-4-(4-methylthiazol-5-yl)benzyl)-1-((S)-2-(1-fluorocyclopropane-1-carboxamido)-3,3-dimethylbutanoyl)-4-hydroxypyrrolidine-2-carboxamide] | 67.0% | 95.0% |  |
| Cc1ncsc1-c1ccc(CNC(=O)[C@@H]2C[C@@H](O)CN2C(=O)[C@@H](NC(=O)C2(F)CC2)C(C)(C)C)c(OCCCC2CCN(C(=O)CC(=O)Nc3cccc(Sc4ncc(N5CCC(C)(CN)CC5)nc4N)c3Cl)CC2)c1 [Example 42, (2S,4R)—N-(2-(3-(1-(3-((3-((3-amino-5-(4-(aminomethyl)-4-methylpiperidin-1-yl)pyrazin-2-yl)thio)-2-chlorophenyl)amino)-3-oxopropanoyl)piperidin-4-yl)propoxy)-4-(4-methylthiazol-5-yl)benzyl)-1-((S)-2-(1-fluorocyclopropane-1-carboxamido)-3,3-dimethylbutanoyl)-4-hydroxypyrrolidine-2-carboxamide] | 73.5% | 95.0% |  |
| CC(=O)N[C@H](C(=O)N1C[C@H](O)C[C@H]1C(=O)NCc1ccc(-c2scnc2C)cc1OCCCC1CCN(C(=O)CC(=O)Nc2cccc(Sc3cnc(N4CCC(C)(CN)CC4)cn3)c2Cl)CC1)C(C)(C)C [Example 43, (2S,4R)-1-((S)-2-acetamido-3,3-dimethylbutanoyl)-N-(2-(3-(1-(3-((3-((5-(4-(aminomethyl)-4-methylpiperidin-1-yl)pyrazin-2-yl)thio)-2-chlorophenyl)amino)-3-oxopropanoyl)piperidin-4-yl)propoxy)-4-(4-methylthiazol-5-yl)benzyl)-4-hydroxypyrrolidine-2-carboxamide] | 80.0% | 96.5% |  |

The next lines start with the values.

| SHP2 degradation (%) 10 nM | SHP2 degradation (%) 100 nM | SHP2 degradation (%) 1000 nM | SMILES |
| --- | --- | --- | --- |
| 86% | 93% | 93.5% | CC(=O)N[C@H](C(=O)N1C[C@H](O)C[C@H]1C(=O)NCc1ccc(-c2scnc2C)cc1OCCC1CCN(C(=O)CC(=O)Nc2cccc(Sc3cnc(N4CCC(C)(CN)CC4)cn3)c2Cl)CC1)C(C)(C)C [Example 38, (2S,4R)-1-((S)-2-acetamido-3,3-dimethylbutanoyl)-N-(2-(2-(1-(3-((3-((5-(4-(aminomethyl)-4-methylpiperidin-1-yl)pyrazin-2-yl)thio)-2-chlorophenyl)amino)-3-oxopropanoyl)piperidin-4-yl)ethoxy)-4-(4-methylthiazol-5-yl)benzyl)-4-hydroxypyrrolidine-2-carboxamide] |
| 77.0% | 92.5% | 91.5% | Cc1ncsc1-c1ccc(CNC(=O)[C@@H]2C[C@@H](O)CN2C(=O)[C@@H](NC(=O)C2(F)CC2)C(C)(C)C)c(OCCCC2CCN(C(=O)CC(=O)Nc3cccc(Sc4cnc(N5CCC(C)(CN)CC5)cn4)c3Cl)CC2)c1 [Example 41, (2S,4R)—N-(2-(3-(1-(3-((3-((5-(4-(aminomethyl)-4-methylpiperidin-1-yl)pyrazin-2-yl)thio)-2-chlorophenyl)amino)-3-oxopropanoyl)piperidin-4-yl)propoxy)-4-(4-methylthiazol-5-yl)benzyl)-1-((S)-2-(1-fluorocyclopropane-1-carboxamido)-3,3-dimethylbutanoyl)-4-hydroxypyrrolidine-2-carboxamide] |
| 71.5% | 95% | 95.5% | Cc1ncsc1-c1ccc(CNC(=O)[C@@H]2C[C@@H](O)CN2C(=O)[C@@H](NC(=O)C2(F)CC2)C(C)(C)C)c(OCC2CCN(C(=O)CCC(=O)Nc3cccc(Sc4cnc(N5CCC(C)(CN)CC5)cn4)c3Cl)CC2)c1 [Example 44, (2S,4R)—N-(2-((1-(4-((3-((5-(4-(aminomethyl)-4-methylpiperidin-1-yl)pyrazin-2-yl)thio)-2-chlorophenyl)amino)-4-oxobutanoyl)piperidin-4-yl)methoxy)-4-(4-methylthiazol-5-yl)benzyl)-1-((S)-2-(1-fluorocyclopropane-1-carboxamido)-3,3-dimethylbutanoyl)-4-hydroxypyrrolidine-2-carboxamide] |
| 68.0% | 91.0% | 93.0% | Cc1ncsc1-c1ccc(CNC(=O)[C@@H]2C[C@@H](O)CN2C(=O)[C@@H](NC(=O)C2(F)CC2)C(C)(C)C)c(OCCC2CCN(C(=O)CCC(=O)Nc3cccc(Sc4cnc(N5CCC(C)(CN)CC5)cn4)c3Cl)CC2)c1 [Example 45, (2S,4R)—N-(2-(2-(1-(4-((3-((5-(4-(aminomethyl)-4-methylpiperidin-1-yl)pyrazin-2-yl)thio)-2-chlorophenyl)amino)-4-oxobutanoyl)piperidin-4-yl)ethoxy)-4-(4-methylthiazol-5-yl)benzyl)-1-((S)-2-(1-fluorocyclopropane-1-carboxamido)-3,3-dimethylbutanoyl)-4-hydroxypyrrolidine-2-carboxamide] |
